One data set deals with B16 melanoma 4A5 cells. The data set can be described thus: Melanin production inhibitory effect (theophylline-induced melanin production). In kind it is cell-based, mouse. Particulars: melanin production inhibition rate, sample at a concentration of 10 mM or less, 3 days culture, theophylline 1 mmol/L, N=4. Here is the method: As a test of the whitening effect, the effect on theophylline-induced melanin production in B16 melanoma 4A5 cells was evaluated for the ascorbic acid derivatives of the present invention according to the following procedure. A similar evaluation was also performed for a known ascorbic acid derivative for comparison. The results are shown in Tables 9 to 11. • (1) B16 mouse melanoma 4A5 cells were seeded in a 48-well plate at a cell density of 8.0×10^3 cells/well. • (2) After culturing for 24 hours in Dulbecco's modified Eagle's medium (manufactured by SIGMA, hereinafter abbreviated as “D-MEM”) containing 10% fetal bovine serum, the medium was replaced with D-MEM containing 10% fetal bovine serum containing theophylline (final concentration 1 mmol/L) and a specified concentration of a sample. • (3) After culturing for 3 days in the presence of the sample, the medium was removed using an aspirator, distilled water was added, and the cells were disrupted by ultrasonication. • (4) The amount of protein was then quantified using a BCA protein assay kit (manufactured by PIERCE), and the amount of melanin produced was measured by an alkali solubilization method. Sodium hydroxide was added to the cell lysate to a final concentration of 1 mol/L, and the solution was dissolved by heating (60° C., 30 minutes), thereafter the absorbance at 405 nm was measured using a microplate reader. The amount of melanin was calculated from a calibration curve prepared using synthetic melanin (SIGMA) as a standard. The amount of melanin per unit protein was calculated by dividing the amount of melanin by the amount of protein. • (5) The melanin production inhibition rate was calculated using the following formula.
[In the formula, A represents the amount of melanin per unit protein (g/g) when the sample was added, B represents the amount of melanin per unit protein (g/g) in the normal group, and C represents the amount of melanin per unit protein (g/g) in the control group.]
The melanin production inhibition rate when the sample was measured at a concentration of 10 mM or less is expressed as follows. The measurement was performed with N=4. • <20%: ± • 20-40%: + • 40-60%: ++ • 60-100%: +++

A short description of data set [1]: Stability test (residual rate by HPLC, odor, coloring). In kind it is physicochemical. The note with it: 1% aqueous solution; for Coloring / Odor: total score of 10 panelists. On the procedure:
With a dilute potassium hydroxide aqueous solution, 1% aqueous solution of each test sample was adjusted to pH 6, placed in a 50 mL screw tube, sealed, […], and then subjected to HPLC measurement (using a liquid chromatograph manufactured by Shimadzu Corporation) to determine the residual rate from the peak area. The residual rate, odor, and coloring degree were evaluated according to the following methods and criteria.
Residual rate: • ⊚: 90% or more • ◯: 80% or more, less than 90% • Δ: 60% or more, less than 80% • x: 20% or more, less than 60% • xx: Less than 20%
Evaluation was made by 10 panelists according to the following criteria. • 3: Almost odorless • 2: There is a slight strange odor. • 1: A strong odor is detected.
Based on the evaluation results, the following classification was made: • ⊚: Total score of 10 panelists is 25 or more • ◯: Total score of 10 panelists is 20-24 • Δ: Total score of 10 panelists is 16-19 • x: The total score of 10 panelists is 15 or less
Evaluation was made by 10 panelists according to the following criteria. • 3: Almost no change compared to immediately after preparation. • 2: Color changes compared to immediately after preparation. • 1: Strongly colored compared to immediately after preparation.
Based on the evaluation results, the following classification was made: • ◯: Total score of 10 panelists is 25 or more • Δ: Total score of 10 panelists is 16-24 • x: The total score of 10 panelists is 15 or less

Data set [2] deals with Normal human dermal fibroblasts. The data set can be described thus: Collagen production promoting effect (ELISA of supernatant). In kind it is cell-based. Particulars: amount of collagen produced, % with control group taken as 100%; sample at 10 mmol/L or less, 48 hours, N=3. Here is the method:
Normal human dermal fibroblasts were prepared in D-MEM containing 5% (v/v) fetal bovine serum to a cell density of […] cells/well, and pre incubated on a 96-well plate for 24 hours. After removing the medium, samples prepared to a predetermined concentration in D-MEM containing 5% (v/v) fetal bovine serum were added to each well and cultured for 48 hours. After completion of the culture, the amount of free collagen in the supernatant was quantified by ELISA method. The measurement was performed with N=3.
The amount of collagen produced when the samples were measured at a concentration of 10 mmol/L or less was compared with that of the control group, and the results (% values when the control group is taken as 100%) are shown in Tables 15 to 17 based on the following criteria. • <100%: ± • 100-120%: + • 120%: ++

For data set [3], the system named is Normal human dermal fibroblasts (NHDF). Put plainly: Hyaluronic acid production promoting effect (ELISA of supernatant). In kind it is cell-based. The note with it: amount of hyaluronic acid produced, % with control group taken as 100%; sample at 10 mmol/L or less, 48 hours, N=3. On the procedure:
Normal human dermal fibroblasts (NHDF) were prepared in D-MEM containing 5% (v/v) fetal bovine serum to a cell density of 2.5× 10^4 cells/well, and then pre-incubated on a 96-well plate for 24 hours. After removing the medium, samples prepared in serum-free D-MEM were added to each well and cultured for 48 hours. After the culture was completed, the amount of hyaluronic acid in the supernatant was quantified by ELISA method. The measurement was performed with N=3.
The amount of hyaluronic acid produced when the samples were measured at a concentration of 10 mmol/L or less was compared with that of the control group, and the results (% values when the control group is taken as 100%) are shown in Tables 18 to 20 based on the following criteria. • <100%: ± • 100-120%: + • 120-150%: ++ • 150%: +++

[4] abbreviates: pH 6, stored at 50° C., four weeks later.
[5] abbreviates: pH 6, stored at 50° C., two weeks later.

For `CC(C)(O)COC1=C(OCC(C)(C)O)[C@@H]([C@@H](O)CO)OC1=O` [Synthesis Example 17, 2,3-di-O-(2-hydroxyisobutyl) ascorbic acid], the “Melanin production inhibition effect” value in the data set with B16 melanoma 4A5 cells was “+ (20-40%: +)”. In data set [1] (pH 6, 50° C., initial), the Residual rate result is listed as “⊚ (⊚: 90% or more)”, the Coloring result is given as “◯ (◯: Total score of 10 panelists is 25 or more)” and the Odor result was “◯ (◯: Total score of 10 panelists is 20-24)”. Further, in data set [1] (setting [4]), the Residual rate entry is reported as “⊚ (⊚: 90% or more)”, the Coloring result is reported as “◯ (◯: Total score of 10 panelists is 25 or more)” and the Odor entry is listed as “◯ (◯: Total score of 10 panelists is 20-24)”. Further, in data set [1] (setting [5]), the Residual rate entry is reported as “⊚ (⊚: 90% or more)”, the Coloring entry is recorded as “◯ (◯: Total score of 10 panelists is 25 or more)” and the Odor result is listed as “◯ (◯: Total score of 10 panelists is 20-24)”. Further, the “Collagen production promoting effect” value in data set [2] was “++ (120%: ++)”. Moreover, the “Hyaluronic acid production promoting effect” value in data set [3] is “++ (120-150%: ++)”.

For the molecule `CCCCCCCCCCCCCCOC1=C(OCC(C)(C)O)[C@@H]([C@@H](O)CO)OC1=O` [Synthesis Example 24, 2-O-tetradecyl-3-O-(2-hydroxyisobutyl) ascorbic acid], the “Melanin production inhibition effect” value with B16 melanoma 4A5 cells was “+++ (60-100%: +++)”. The Residual rate result was “⊚ (⊚: 90% or more)” in data set [1] (pH 6, 50° C., initial); “⊚ (⊚: 90% or more)” in data set [1] (setting [4]); “⊚ (⊚: 90% or more)” in data set [1] (setting [5]). Also, the Coloring entry in data set [1] (pH 6, 50° C., initial) is “◯ (◯: Total score of 10 panelists is 25 or more)”; in data set [1] (setting [4]), “◯ (◯: Total score of 10 panelists is 25 or more)”; in data set [1] (setting [5]), “◯ (◯: Total score of 10 panelists is 25 or more)”. Further, the Odor entry in data set [1] (pH 6, 50° C., initial) is “◯ (◯: Total score of 10 panelists is 20-24)”; in data set [1] (setting [4]) it was “◯ (◯: Total score of 10 panelists is 20-24)”; in data set [1] (setting [5]), “◯ (◯: Total score of 10 panelists is 20-24)”. In addition, in data set [2], the “Collagen production promoting effect” value is reported as “++ (120%: ++)”. The “Hyaluronic acid production promoting effect” value in data set [3] is on record as “++ (120-150%: ++)”.

With `CCCCCCCCCCCCOCC(O)COC1=C(OCC(C)(C)O)C(C(O)CO)OC1=O` (stereo not drawn) [Synthesis Example 31, 2-O-(2-hydroxy-3-O-dodecyl)-3-O-(2-hydroxyisobutyl) ascorbic acid], the “Melanin production inhibition effect” value in the data set with B16 melanoma 4A5 cells is “+ (20-40%: +)”. Further, in data set [1] (pH 6, 50° C., initial), the Residual rate result was “⊚ (⊚: 90% or more)”, the Coloring result is recorded as “◯ (◯: Total score of 10 panelists is 25 or more)” and the Odor entry is “⊚ (⊚: Total score of 10 panelists is 25 or more)”. In data set [1] (setting [4]), the Residual rate result is recorded as “⊚ (⊚: 90% or more)”, the Coloring entry is listed as “◯ (◯: Total score of 10 panelists is 25 or more)” and the Odor result is “◯ (◯: Total score of 10 panelists is 20-24)”. In data set [1] (setting [5]), the Residual rate entry is reported as “⊚ (⊚: 90% or more)”, the Coloring entry was “◯ (◯: Total score of 10 panelists is 25 or more)” and the Odor result is reported as “⊚ (⊚: Total score of 10 panelists is 25 or more)”. Besides, the “Collagen production promoting effect” value in data set [2] was “++ (120%: ++)”. Also, in data set [3], the “Hyaluronic acid production promoting effect” value was “++ (120-150%: ++)”.

On to `CCCCCCCCC(O)COC1=C(OCC(C)(C)O)C(=O)O[C@@H]1[C@@H](O)CO` (stereo partly drawn) [Synthesis Example 36, 2-O-(2-hydroxyisobutyl)-3-O-(2-hydroxydecyl) ascorbic acid], for which, in the data set with B16 melanoma 4A5 cells, the “Melanin production inhibition effect” value is given as “++ (40-60%: ++)”. Also, in data set [1] (pH 6, 50° C., initial), the Residual rate entry is recorded as “⊚ (⊚: 90% or more)”, the Coloring entry is “⊚” and the Odor entry is “◯ (◯: Total score of 10 panelists is 20-24)”. Further, in data set [1] (setting [4]), the Residual rate result is reported as “⊚ (⊚: 90% or more)”, the Coloring entry was “◯ (◯: Total score of 10 panelists is 25 or more)” and the Odor result is reported as “◯ (◯: Total score of 10 panelists is 20-24)”. Besides, in data set [1] (setting [5]), the Residual rate result is “⊚ (⊚: 90% or more)”, the Coloring result was “◯ (◯: Total score of 10 panelists is 25 or more)” and the Odor entry was “◯ (◯: Total score of 10 panelists is 20-24)”. In addition, the “Collagen production promoting effect” value in data set [2] is listed as “+ (100-120%: +)”. Further, the “Hyaluronic acid production promoting effect” value in data set [3] was “++ (120-150%: ++)”.

Turning to `CCCCCCCCCCCCCCC(O)COC1=C(OCC(C)(C)O)C(=O)O[C@@H]1[C@@H](O)CO` (stereo partly drawn) [Synthesis Example 37, 2-O-(2-hydroxyisobutyl)-3-O-(2-hydroxyhexadecyl) ascorbic acid], the “Melanin production inhibition effect” value with B16 melanoma 4A5 cells is given as “+ (20-40%: +)”. Besides, the Residual rate entry in data set [1] (pH 6, 50° C., initial) was “⊚ (⊚: 90% or more)”; in data set [1] (setting [4]), “⊚ (⊚: 90% or more)”; in data set [1] (setting [5]), “⊚ (⊚: 90% or more)”. The Coloring result is “◯ (◯: Total score of 10 panelists is 25 or more)” in data set [1] (pH 6, 50° C., initial); “◯ (◯: Total score of 10 panelists is 25 or more)” in data set [1] (setting [4]); “◯ (◯: Total score of 10 panelists is 25 or more)” in data set [1] (setting [5]). In addition, the Odor entry in data set [1] (pH 6, 50° C., initial) is listed as “⊚ (⊚: Total score of 10 panelists is 25 or more)”; in data set [1] (setting [4]), “◯ (◯: Total score of 10 panelists is 20-24)”; in data set [1] (setting [5]) it was “◯ (◯: Total score of 10 panelists is 20-24)”. The “Collagen production promoting effect” value in data set [2] is on record as “+ (100-120%: +)”. Further, the “Hyaluronic acid production promoting effect” value in data set [3] is recorded as “++ (120-150%: ++)”.

Consider `CC(C)(O)COC1=C(OCC(O)c2ccccc2)C(C(O)CO)OC1=O` (stereo not drawn) [Synthesis Example 38, 2-O-(2-hydroxyisobutyl)-3-O-(2-hydroxyethylbenzene) ascorbic acid], for which the “Melanin production inhibition effect” value in the data set with B16 melanoma 4A5 cells is “++ (40-60%: ++)”. Besides, in data set [1] (pH 6, 50° C., initial), the Residual rate entry is on record as “⊚ (⊚: 90% or more)”, the Coloring result was “⊚” and the Odor entry is recorded as “◯ (◯: Total score of 10 panelists is 20-24)”. For the same molecule, in data set [1] (setting [4]), the Residual rate entry is reported as “⊚ (⊚: 90% or more)”, the Coloring result is “◯ (◯: Total score of 10 panelists is 25 or more)” and the Odor entry is “◯ (◯: Total score of 10 panelists is 20-24)”. In data set [1] (setting [5]), the Residual rate result was “⊚ (⊚: 90% or more)”, the Coloring entry is given as “◯ (◯: Total score of 10 panelists is 25 or more)” and the Odor entry is given as “◯ (◯: Total score of 10 panelists is 20-24)”. Besides, the “Collagen production promoting effect” value in data set [2] is given as “++ (120%: ++)”. For the same molecule, the “Hyaluronic acid production promoting effect” value in data set [3] is given as “++ (120-150%: ++)”.

The values are drawn from US20260001853A1, “ASCORBIC ACID DERIVATIVE OR SALT THEREOF, AND COSMETIC THEREOF” (SEIWA KASEI COMPANY, LIMITED, priority 2022, published 2026).
